Marks after values point to notes of the source that are not given here.
Columns and labels:
Type in all cases: in vivo
[1] = system: mouse cerebral infarction model; assay: Mouse cerebral infarction model: infarction area percentage, neurological symptom, edema percentage; details: evaluated 24 h, mean ± SE, n=6
From the text: Using male ddY line mouse (body weight 35 to 45 g), a cerebral infarction model was produced and evaluated about neurological symptoms and the infarction area percentage according to methods similar to the production method and the evaluation method for the Mongolian gerbil cerebral infarction model.
The improvement effectiveness of SMTP-7 and alteplase on the infarction area percentage, the neurological symptom and the edema percentage was compared using the mouse cerebral infarction model. At the same time the dose dependence of the degree of improvement of SMTP-7 was investigated.
SMTP-7 and alteplase were prepared as in Example 2. Ten mg/kg each was administered into the femoral vein 1 hour or 3 hours after the initiation of ischemia in a mouse cerebral infarction model, wherein 10% was administered by a bolus administration, and the rest by continuous administration over 30 min. Further, 0.1 mg/kg or 1 mg/kg of SMTP-7 was administered into the femoral vein 1 hour after the initiation of ischemia in a mouse cerebral infarction model, wherein 10% was administered by a bolus administration, and the rest by continuous administration over 30 min. Six mice were used for each condition.
Twenty four hours after the initiation of the operation neurological symptom of each mouse was examined to rate the neurological symptom. Then the brain of each mouse was extirpated and the infarction area was measured and the infarction area percentage was determined. The edema percentage was determined according to the following formula: Edema percentage (%)=(Volume of the cerebral hemisphere affected by ischemia−Volume of the other side cerebral hemisphere)/Volume of the other side cerebral hemisphere×100 […]

IL-1β = assay: Real time RT-PCR of inflammation parameter IL-1β in brain of mouse cerebral infarction model; details: 10 mg/kg, ipsilesional (right) brain at 24 h, mean ± SE, n=6
Protocol: (§1) Using the Mouse Cerebral Infarction model changes of parameters related to inflammation among the triprenyl phenol compound (10 mg/kg) administration groups, the alteplase (10 mg/kg) administration groups, and the alteplase (10 mg/kg) and aspirin (10 mg/kg) combined administration group were evaluated by a real time RT-PCR method. As the parameters IL-1β, TNF-α nd IL-6 were selected, which were typical parameters related to inflammation.
(§2) The administrations of SMTP-7 (10 mg/kg) and alteplase (10 mg/kg) were initiated 1 hour or 3 hours after the initiation of ischemia. The administration method was same as Example 3.
(§3) The combined administration of alteplase (10 mg/kg) and aspirin (10 mg/kg) was initiated 3 hours after the initiation of ischemia. Alteplase was administered same as in Example 3, and aspirin was administered by a bolus intravenous injection into the femoral vein.
(§4) The administrations of SMTP-6, SMTP-22, SMTP-25, SMTP-43 and SMTP-44D were initiated 1 hour after the initiation of ischemia. The administration method was same as Example 5.
(§5) After 24 hours of the initiation of the operation, a Krebs-HEPES buffer was perfused from the heart and then the brain was extirpated.
(§6) After preparing brain slices, the fourth slice was divided to the left brain and the right brain, and homogenized respectively with 1 mL of TRIZOL (registered trademark) reagent (Invitrogen). After incubating at room temperature for 5 min, adding chloroform (0.2 mL), and mixing for 15 sec, incubation was carried out at room temperature for 3 min. The samples were centrifuged at 4° C. for 15 min at 12,000×g.
(§7) Since RNA moved to a water layer, the water layer was collected and, after addition of 0.5 mL of isopropyl alcohol, followed by incubation at room temperature for 10 min, centrifuged at 4° C. for 10 min at 12,000×g. Since a pellet was formed in a tube after the centrifugation, the supernatant was removed, and 1 mL of 75% ethanol was added followed by stirring to wash the pellet. The mixture was then centrifuged at 4° C. for 5 min at 7,500×g. After removing again the supernatant, being left for natural drying for 8 min, the pellet containing the RNA was dissolved in 100 μL of RNase-free water. cDNA was produced by reverse transcription of the RNA using a SuperScript (registered trademark) VILOTM cDNA Synthesis Kit (Invitrogen) by a Thermal Cycler 2720 (Applied Biosystems). More particularly, 4 μL of 5×VILOTM Reaction Mix, 2 μL of 10× SuperScript (registered trademark) Enzyme Mix, and 1 μg of each RNA were mixed and diluted to 20 μL with RNase-free water.
(§8) Reverse transcription was conducted using the above samples under the following conditions. After reacting at 25° C. for 10 min, at 42° C. for 60 min, and at 85° C. for 5 min, the product was stored at 4° C. With the cDNA as a template real time RT-PCR was carried out by ABI PRISM 7000 using SYBR (registered trademark) GreenERTM qPCR SuperMix for ABI PRISM (registered trademark; Invitrogen). […]
(§9) Real time RT-PCR was conducted using the above samples under the following conditions. […] Changes of the respective parameters were determined by a calibration curve method. β-actin was measured as an internal control, and the respective parameters were calculated as a relative value based on the β-actin. […]

TNF-α = assay: Real time RT-PCR of inflammation parameter TNF-α in brain of mouse cerebral infarction model; details: 10 mg/kg, ipsilesional (right) brain at 24 h, mean ± SE, n=6
Protocol: as §1, §2, §3, §4, §5, §6, §7, §8, §9

IL-6 = assay: Real time RT-PCR of inflammation parameter IL-6 in brain of mouse cerebral infarction model; details: 10 mg/kg, ipsilesional (right) brain at 24 h, mean ± SE, n=6
Protocol: as §1, §2, §3, §4, §5, §6, §7, §8, §9

[2] = 0.1 mg/kg femoral vein, administration 1 hour after ischemia
[3] = 1 mg/kg femoral vein, administration 1 hour after ischemia
[4] = 10 mg/kg femoral vein, administration initiated 1 hr after ischemia
[5] = 10 mg/kg femoral vein, administration initiated 3 hr after ischemia
[6] = administration initiated 1 hr after ischemia
[7] = administration initiated 3 hr after ischemia

`CC(C)=CCC/C(C)=C/CC[C@@]1(C)Oc2c(c(O)cc3c2CN(CCC[C@@H](C(=O)O)N2Cc4c(cc(O)c5c4O[C@](C)(CC/C=C(\C)CCC=C(C)C)[C@@H](O)C5)C2=O)C3=O)C[C@@H]1O` [SMTP-7] showed an Edema percentage [1, 2] of 10.15 ± 1.817%, an Infarction area [1, 2] of 10.08 ± 2.07% and a Neurological scores [1, 2] of 2.5 ± 0.5. The Edema percentage [1, 3] was 8.81 ± 2.292%, the Infarction area [1, 3] was 6.66 ± 0.71 % and the Neurological scores [1, 3] was 2 ± 0.632. For the same compound, the Edema percentage [1, 4] was 5.81 ± 0.967 %, the Infarction area [1, 4] was 4.87 ± 1.06 % and the Neurological scores [1, 4] was 1.67 ± 0.422. It also gave an Edema percentage [1, 5] of 6.23 ± 1.07 %, an Infarction area [1, 5] of 5.05 ± 0.576 % and a Neurological scores [1, 5] of 1.33 ± 0.558. For the same compound, the “IL-1β, relative value to β-actin” value (IL-1β; [6]) was 0.0314 ± 0.0171, the “IL-1β, relative value to β-actin” value (IL-1β; [7]) was 0.0728 ± 0.0380 and the “TNF-α, relative value to β-actin” value (TNF-α; [6]) was 0.151 ± 0.0313. For the same compound, the “TNF-α, relative value to β-actin” value (TNF-α; [7]) was 0.147 ± 0.0293, the “IL-6, relative value to β-actin” value (IL-6; [6]) was 0.0356 ± 0.0138 and the “IL-6, relative value to β-actin” value (IL-6; [7]) was 0.0651 ± 0.0308.

Compound `CC(C)=CCC/C(C)=C/CCC1(C)Oc2c(c(O)cc3c2CN(C(Cc2c[nH]c4ccccc24)C(=O)O)C3=O)CC1O` (stereo not drawn) [SMTP-6] has an Edema percentage [1, 4] of 9.80 ± 2.74%, an Infarction area [1, 4] of 9.81 ± 1.43% and a Neurological scores [1, 4] of 3 ± 0.447. For the same compound, the “IL-1β, relative value to β-actin” value (IL-1β; [6]) was 0.165 ± 0.0930, the “TNF-α, relative value to β-actin” value (TNF-α; [6]) was 0.261 ± 0.119 and the “IL-6, relative value to β-actin” value (IL-6; [6]) was 0.220 ± 0.0850.

Compound alteplase [reference compound] has an Edema percentage [1, 4] of 3.63 ± 2.67 %, an Infarction area [1, 4] of 6.15 ± 1.94 % and a Neurological scores [1, 4] of 1.17 ± 0.749. The Edema percentage [1, 5] was 12.6 ± 1.84%, the Infarction area [1, 5] was 11.9 ± 2.26% and the Neurological scores [1, 5] was 2.50 ± 0.500. For the same compound, the “IL-1β, relative value to β-actin” value (IL-1β; [6]) was 0.0408 ± 0.0173, the “IL-1β, relative value to β-actin” value (IL-1β; [7]) was 0.347 ± 0.172**^,## and the “TNF-α, relative value to β-actin” value (TNF-α; [6]) was 0.164 ± 0.0332. The “TNF-α, relative value to β-actin” value (TNF-α; [7]) was 0.381 ± 0.155, the “IL-6, relative value to β-actin” value (IL-6; [6]) was 0.0582 ± 0.0254 and the “IL-6, relative value to β-actin” value (IL-6; [7]) was 0.341 ± 0.138**^,#.
